Where a name gives a salt, the structure may show the parent alone.

One experiment concerns the target T1, RON tyrosine kinase (Homo sapiens, UniProt Q04912).
T1 construct: purchased Carna Bioscience
The experiment in a line: Enzyme inhibitory activity against RON tyrosine kinase (TR-FRET). The conditions noted are these: RON (Carna Bioscience). The class given is biochemical. Summed up: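 Recombinant RON was preincubated with compound for 15 min at RT in 50 mM HEPES pH 7.5, 10 mM MgCl2, 1 mM EGTA, 2 mM DTT, 0.01% Tween-20. Enzyme (0.4 nM), ATP (60 μM) and tyrosine peptide (400 nM) were prepared at 2×, 4× and 4× final. After 60 min at RT, EDTA/Eu-anti-phosphotyrosine stop; IC50 from 665 nm TR-FRET emission.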

In experiment [1] the test system is cancer cell line KM12C, in which RON is activated. The experiment in a line: Cell-killing efficacy in RON-activated cancer cell line (trypan blue). The class given is cell-based. The conditions noted are these: Homo sapiens, 48 hours, trypan blue, n=2, read-out: Cell death (%) Cancer cell line KM12C. Summed up:
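KM12C cells seeded 1×10^5 per 60 mm^2 dish in MEM + 10% FBS, then exposed 24 h later to compound at 1 μM or 5 μM for 48 h.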

Experiment [2] has the same test system. In words: Cell growth inhibitory ability in RON-activated cancer cell line (MTS). The conditions noted are these: Homo sapiens, 48 hours, absorbance 490 nm. The class given is cell-based. Summed up:
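KM12C cells (RON-activated, MEM with FBS) exposed to compound […] for 48 h. MTS added 24 h after treatment ended, incubated 4 h at 37° C, absorbance read at 490 nm. IC50 derived from absorbance.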

Experiment [3] has as its system cancer cell line HT29, in which mutated RON (Δ160) is expressed. The experiment in a line: Cell-killing efficacy in RON-mutated cancer cell line HT29 (trypan blue). The class given is cell-based. The conditions noted are these: Homo sapiens, HT-29, 48 hours, trypan blue, n=2, read-out: Cell death (%) Cancer cell line HT29. How it is done: Experimental Example 4: Measurement of Cell-Killing Efficacy of Example Compounds in RON-Mutated Cancer Cell Lines
Each of two colorectal cancer cell lines, that is, the cancer cell line HT29 (30038, KCLB, RPMI+10% FBS), in which mutated RON (Δ160) is expressed, and the cancer cell line SW620 (CCL-227, ATCC, RPMI+10% FBS), in which mutated RON (Δ155) is expressed, was dispensed into each 60 mm^2 dish at 1×10^5 cells. After 24 hours, the dish was treated with each of the example compounds at a concentration of 1 μM or 5 μM while performing medium exchange, and then reaction was allowed to proceed for 48 hours. After 48 hours, centrifugation was performed for 4 minutes at 1,500 rpm to collect cells and cell fluid. Thereafter, living cells and dead cells were quantified (n=2) using a trypan blue solution (15250-061, Gibco), and statistical analysis was performed using Excel-T-test. Here, as a negative control, only a solvent (0.10% DMSO) was used; and as a positive control, N-(4-(2-amino-3-chloropyridin-4-yloxy)-3-fluorophenyl)-4-ethoxy-1-(4-fluorophenyl)-2-oxo-1,2-dihydropyridine-3-carboxamide, which is the compound of Example 1 in WO 2008/058229 A1, was used.

T1 sequence (Q04912 25-1400): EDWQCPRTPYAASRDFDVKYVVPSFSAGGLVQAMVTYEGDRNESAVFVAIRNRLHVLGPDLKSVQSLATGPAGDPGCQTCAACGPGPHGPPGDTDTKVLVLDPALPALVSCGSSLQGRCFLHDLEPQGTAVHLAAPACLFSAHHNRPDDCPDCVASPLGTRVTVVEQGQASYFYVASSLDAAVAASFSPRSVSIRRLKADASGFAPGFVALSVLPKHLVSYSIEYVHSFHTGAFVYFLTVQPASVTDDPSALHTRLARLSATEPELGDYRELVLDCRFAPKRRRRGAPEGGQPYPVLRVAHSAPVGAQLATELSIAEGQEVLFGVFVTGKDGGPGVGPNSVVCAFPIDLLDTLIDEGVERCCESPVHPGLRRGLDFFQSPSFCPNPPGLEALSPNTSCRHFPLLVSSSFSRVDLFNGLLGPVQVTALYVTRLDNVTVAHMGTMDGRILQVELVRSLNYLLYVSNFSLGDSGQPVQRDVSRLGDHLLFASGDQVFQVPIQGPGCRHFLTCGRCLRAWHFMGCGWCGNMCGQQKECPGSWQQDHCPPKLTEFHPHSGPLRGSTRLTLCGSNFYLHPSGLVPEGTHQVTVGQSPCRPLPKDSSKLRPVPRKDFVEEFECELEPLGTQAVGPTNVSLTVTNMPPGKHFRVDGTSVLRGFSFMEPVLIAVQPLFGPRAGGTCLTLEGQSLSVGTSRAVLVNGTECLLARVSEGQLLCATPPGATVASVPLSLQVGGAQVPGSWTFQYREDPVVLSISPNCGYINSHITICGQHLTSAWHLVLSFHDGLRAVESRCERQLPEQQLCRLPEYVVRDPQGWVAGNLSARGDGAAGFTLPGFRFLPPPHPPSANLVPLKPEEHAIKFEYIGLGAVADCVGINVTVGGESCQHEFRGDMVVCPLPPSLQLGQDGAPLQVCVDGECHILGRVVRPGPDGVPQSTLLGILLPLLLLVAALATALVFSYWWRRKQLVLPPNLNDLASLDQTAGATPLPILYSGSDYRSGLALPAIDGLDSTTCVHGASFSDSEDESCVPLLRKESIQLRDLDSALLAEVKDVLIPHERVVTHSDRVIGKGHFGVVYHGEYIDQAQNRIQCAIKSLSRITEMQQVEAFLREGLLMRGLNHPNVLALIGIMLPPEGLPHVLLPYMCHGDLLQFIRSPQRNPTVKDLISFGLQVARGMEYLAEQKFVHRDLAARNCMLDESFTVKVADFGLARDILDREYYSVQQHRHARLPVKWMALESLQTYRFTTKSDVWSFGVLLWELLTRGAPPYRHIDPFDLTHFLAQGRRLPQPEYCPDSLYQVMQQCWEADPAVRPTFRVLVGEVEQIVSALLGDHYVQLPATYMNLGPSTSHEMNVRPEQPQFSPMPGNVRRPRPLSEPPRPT

As usually defined, the IC50 is the concentration needed to halve the response being measured. A higher IC50 goes with weaker potency. Regarding `COc1cc2c(Oc3ccc(NC(=O)c4c5c(cn(-c6ccc(F)cc6)c4=O)CCO5)cc3F)ccnc2cc1NC(=O)CN1CCOCC1` [Example 182, N-(3-Fluoro-4-((6-methoxy-7-(2-morpholinoacetamido)quinolin-4-yl)oxy)phenyl)-5-(4-fluorophenyl)-6-oxo-2,3,5,6-tetrahydrofuro[3,2-c]pyridine-7-carboxamide], the IC50 was found to be 3.35 nM against RON tyrosine kinase and 8 nM in experiment [2]. Besides, the cytotoxicity at 1 µM in experiment [1] turned out to be 25.1%; in experiment [3], 7.6%. For the same molecule, the cytotoxicity at 5 µM in experiment [1] was found to be 44.4%; in experiment [3] it was 10.2%.

In the case of `COCCNCc1ccc(-c2cc3nccc(Oc4ccc(NC(=O)c5c6c(cn(-c7ccc(F)cc7)c5=O)CCO6)cc4F)c3s2)nc1` [Example 1, N-(3-Fluoro-4-((2-(5-(((2-methoxyethyl)amino)methyl)pyridin-2-yl)thieno[3,2-b]pyridin-7-yl)oxy)phenyl)-5-(4-fluorophenyl)-6-oxo-2,3,5,6-tetrahydrofuro[3,2-c]pyridine-7-carboxamide hydrochloride], the results for the IC50 (on RON tyrosine kinase; in experiment [2]) were 0.82 nM and 2 nM, respectively. Besides, the cytotoxicity at 1 µM stood at 10.3% in experiment [1] and 9.35% in experiment [3]. The cytotoxicity at 5 µM in experiment [1] stood at 68.6%; in experiment [3], 38.2%.

`O=C(Nc1ccc(Oc2ccnc3cc(-c4ccccn4)sc23)c(F)c1)c1c2c(cn(-c3ccc(F)cc3)c1=O)CCO2` [Example 3, N-(3-Fluoro-4-((2-(pyridin-2-yl)thieno[3,2-b]pyridin-7-yl)oxy)phenyl)-5-(4-fluorophenyl)-6-oxo-2,3,5,6-tetrahydrofuro[3,2-c]pyridine-7-carboxamide]: the IC50 against RON tyrosine kinase was determined as 2.39 nM; in experiment [2], 3 nM. Further, the cytotoxicity at 1 µM in experiment [1] was determined as 24.6%. Besides, the cytotoxicity at 5 µM in experiment [1] is 34%.

Regarding `COCCNCc1ccc(-c2cc3nccc(Oc4ccc(NC(=O)c5c6c(cn(-c7ccccc7)c5=O)CCO6)cc4F)c3s2)nc1` [Example 2, N-(3-Fluoro-4-((2-(5-(((2-methoxyethyl)amino)methyl)pyridin-2-yl)thieno[3,2-b]pyridin-7-yl)oxy)phenyl)-6-oxo-5-phenyl-2,3,5,6-tetrahydrofuro[3,2-c]pyridine-7-carboxamide hydrochloride], the IC50 against RON tyrosine kinase was 1.25 nM; in experiment [2], 67 nM. Also, the values for the cytotoxicity at 1 µM in experiment [1] and in experiment [3] were 38.4% and 15.4%, respectively. Further, the cytotoxicity at 5 µM worked out at 93.4% in experiment [1] and 80.5% in experiment [3].

Molecule `Cn1ncc2cc(Oc3ccc(NC(=O)c4c5c(cn(-c6ccc(F)cc6)c4=O)CCO5)cc3F)c(-c3cn[nH]c3)cc21` [Example 64] had an IC50 against RON tyrosine kinase of 14.2 nM. In experiment [1], the cytotoxicity at 1 µM stood at 13.1% and the cytotoxicity at 5 µM came to 97.1%. Also, in experiment [3], the cytotoxicity at 1 µM was 16% and the cytotoxicity at 5 µM came out at 18.8%.

With `COc1cc2nccc(Oc3ccc(NC(=O)c4c5c(cn(-c6ccc(F)cc6)c4=O)CCO5)cc3F)c2cc1OCCCN1CCOCC1` [Example 176, N-(3-Fluoro-4-((7-methoxy-6-(3-morpholinopropoxy)quinolin-4-yl)oxy)phenyl)-5-(4-fluorophenyl)-6-oxo-2,3,5,6-tetrahydrofuro[3,2-c]pyridine-7-carboxamide], the IC50 against RON tyrosine kinase came to 0.1 nM. In experiment [1], the cytotoxicity at 1 µM was found to be 4.1% and the cytotoxicity at 5 µM worked out at 20.2%. The IC50 in experiment [2] turned out to be 2 nM.

Regarding `CNC(=O)c1cc2c(Oc3ccc(NC(=O)c4c5c(cn(-c6ccc(F)cc6)c4=O)CCO5)cc3F)ccnc2cc1OCCCN1CCOCC1` [Example 164, N-(3-Fluoro-4-((6-(methylcarbamoyl)-7-(3-morpholinopropoxy)quinolin-4-yl)oxy)phenyl)-5-(4-fluorophenyl)-6-oxo-2,3,5,6-tetrahydrofuro[3,2-c]pyridine-7-carboxamide], the IC50 on RON tyrosine kinase was 1.46 nM. Further, in experiment [1], the cytotoxicity at 1 µM came out at 19.4% and the cytotoxicity at 5 µM came out at 29.7%. Besides, the IC50 in experiment [2] was 1 nM.

The molecule `O=C(Nc1ccc(Oc2ccnc3cc(-c4ccc(CN5CCOCC5)cn4)sc23)c(F)c1)c1c2c(cn(-c3ccc(F)cc3)c1=O)CCO2` [Example 5, N-(3-Fluoro-4-((2-(5-(morpholinomethyl)pyridin-2-yl)thieno[3,2-b]pyridin-7-yl)oxy)phenyl)-5-(4-fluorophenyl)-6-oxo-2,3,5,6-tetrahydrofuro[3,2-c]pyridine-7-carboxamide hydrochloride] gave an IC50 on RON tyrosine kinase of 5.87 nM. In experiment [1], the cytotoxicity at 1 µM stood at 21.2% and the cytotoxicity at 5 µM turned out to be 25.9%. This molecule had an IC50 in experiment [2] of 4 nM.

On to `COc1cc2c(Oc3ccc(NC(=O)c4c5c(cn(-c6ccc(F)cc6)c4=O)CCO5)cc3F)ccnc2cc1OCCN1CCOCC1` [Example 78, N-(3-Fluoro-4-((6-methoxy-7-(2-morpholinoethoxy)quinolin-4-yl)oxy)phenyl)-5-(4-fluorophenyl)-6-oxo-2,3,5,6-tetrahydrofuro[3,2-c]pyridine-7-carboxamide], for which the IC50 on RON tyrosine kinase was 2.63 nM. In addition, in experiment [1], the cytotoxicity at 1 µM was 23.5% and the cytotoxicity at 5 µM worked out at 23.9%. Also, the IC50 in experiment [2] stood at 2 nM.

Regarding `COc1cc2c(Oc3ccc(NC(=O)c4c5c(cn(-c6ccc(F)cc6)c4=O)CCO5)cc3F)ccnc2cc1OCCCN1CCN(C)CC1` [Example 80, N-(3-Fluoro-4-((6-methoxy-7-(3-(4-methylpiperazin-1-yl)propoxy)quinolin-4-yl)oxy)phenyl)-5-(4-fluorophenyl)-6-oxo-2,3,5,6-tetrahydrofuro[3,2-c]pyridine-7-carboxamide], half-maximal inhibition on RON tyrosine kinase (IC50) was put at 1.3 nM. Further, in experiment [1], the cytotoxicity at 1 µM was found to be 19.5% and the cytotoxicity at 5 µM was 19.9%. This molecule showed an IC50 in experiment [2] of 3 nM.

With `CNC(=O)c1cc2nccc(Oc3ccc(NC(=O)c4c5c(cn(-c6ccc(F)cc6)c4=O)CCO5)cc3F)c2cc1OC` [Example 165, N-(3-Fluoro-4-((6-methoxy-7-(methylcarbamoyl)quinolin-4-yl)oxy)phenyl)-5-(4-fluorophenyl)-6-oxo-2,3,5,6-tetrahydrofuro[3,2-c]pyridine-7-carboxamide], the IC50 came to 0.45 nM at RON tyrosine kinase and 3 nM in experiment [2]. Also, the cytotoxicity at 1 µM in experiment [1] turned out to be 7.3%. Further, the cytotoxicity at 5 µM in experiment [1] was 32.9%.

At RON tyrosine kinase, `COc1cc2nccc(Oc3ccc(NC(=O)c4c5c(cn(-c6ccccc6)c4=O)CCO5)cc3F)c2cc1OC` [Example 41, N-(4-((6,7-Dimethoxyquinolin-4-yl)oxy)-3-fluorophenyl)-6-oxo-5-phenyl-2,3,5,6-tetrahydrofuro[3,2-c]pyridine-7-carboxamide] showed an IC50 of 2.86 nM. In experiment [1], the cytotoxicity at 1 µM is 16% and the cytotoxicity at 5 µM was 21.4%. For the same molecule, in experiment [2], 2 nM corresponded to half-maximal inhibition (IC50).

In the case of `COc1cc2ncnc(Oc3ccc(NC(=O)c4c5c(cn(-c6ccc(F)cc6)c4=O)CCO5)cc3F)c2cc1OC` [Example 46, N-(4-((6,7-Dimethoxyquinazolin-4-yl)oxy)-3-fluorophenyl)-5-(4-fluorophenyl)-6-oxo-2,3,5,6-tetrahydrofuro[3,2-c]pyridine-7-carboxamide], the IC50 on RON tyrosine kinase is 2.39 nM; in experiment [2] it was 6 nM. For the same molecule, the cytotoxicity at 1 µM in experiment [1] worked out at 23.7%. In addition, in experiment [1], the cytotoxicity at 5 µM was found to be 27.4%.

Take `CN1CCN(CCCOc2ccc3c(Oc4ccc(NC(=O)c5c6c(cn(-c7ccc(F)cc7)c5=O)CCO6)cc4F)ccnc3c2)CC1` [Example 160, N-(3-Fluoro-4-((7-(3-(4-methylpiperazin-1-yl)propoxy)quinolin-4-yl)oxy)phenyl)-5-(4-fluorophenyl)-6-oxo-2,3,5,6-tetrahydrofuro[3,2-c]pyridine-7-carboxamide]: inhibition against RON tyrosine kinase was half-maximal at 1.01 nM (IC50). For the same molecule, in experiment [1], the cytotoxicity at 1 µM came out at 12.7% and the cytotoxicity at 5 µM was 19.4%. The same molecule registered an IC50 in experiment [2] of 6 nM.

For `O=C(Nc1ccc(Oc2ccnc3cc(OCCCN4CCOCC4)c(Cl)cc23)c(F)c1)c1c2c(cn(-c3ccc(F)cc3)c1=O)CCO2` [Example 172, N-(4-((6-Chloro-7-(3-morpholinopropoxy)quinolin-4-yl)oxy)-3-fluorophenyl)-5-(4-fluorophenyl)-6-oxo-2,3,5,6-tetrahydrofuro[3,2-c]pyridine-7-carboxamide], the 50% inhibitory concentration (IC50) against RON tyrosine kinase is 7.44 nM; in experiment [2], 15 nM. For the same molecule, the cytotoxicity at 1 µM in experiment [1] is 3.19%. The cytotoxicity at 5 µM in experiment [1] came to 11.6%.

(Values after patent US20220235064A1 (WELLMARKER BIO CO., LTD., priority 2019, published 2022).)
